From US8674113B2, “Compounds” (Boehringer Ingelheim International GmbH, priority 2010, dated 2014)
Where two headings read alike, the source gives them in different places.

Tests used:
[1] = molecular target: recombinant human mPGES-1 (Homo sapiens (Human), UniProt O14684); experiment: mPGES-1 enzyme assay (HTRF detection of PGE2); assay type: biochemical
Procedure, shortened: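 Microsomes from E. coli expressing recombinant human mPGES-1 (~0.5 μg protein/well) in 0.1 M phosphate pH 7.4 with 2.5 mM GSH, pre-incubated with compound 25 min at room temperature. PGH2 (2 μM final) added, reaction stopped with FeCl2 after 60 s; PGE2 quantified by HTRF (665/620 ratio) against a calibration curve, IC50 by nonlinear regression after background subtraction.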

mPGES-1 in A549 cells = mPGES-1 in A549 cells (Homo sapiens (Human), UniProt O14684); experiment: A549 cell-based assay (PGE2 formation, 50% human serum)
Procedure, shortened: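 A549 cells in F-12K with 50% human serum were stimulated 20-24 h with 5 ng/ml IL-1β and 10 nM arachidonic acid in presence of compound or vehicle. PGE2 in the cell-free medium was measured by HTRF, normalised to vehicle (100%). IC50 from 6-8 point titrations.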

[2] = recombinant human mPGES-1 microsomes, PGH2 2 μM, 60 seconds, read-out: mPGES-1 inhibitory effect IC50 in the enzyme assay
[3] = IL-1β 5 ng/ml, 10 nM arachidonic acid, 20-24 h, read-out: mPGES-1 inhibitory effect IC50 in the cell assay
[4] = Table C comparison of selected benzimidazoles, read-out: Enzym IC50
[5] = Table C comparison of selected benzimidazoles, read-out: Cell IC50

mPGES-1 in A549 cells, sequence (O14684 whole entry): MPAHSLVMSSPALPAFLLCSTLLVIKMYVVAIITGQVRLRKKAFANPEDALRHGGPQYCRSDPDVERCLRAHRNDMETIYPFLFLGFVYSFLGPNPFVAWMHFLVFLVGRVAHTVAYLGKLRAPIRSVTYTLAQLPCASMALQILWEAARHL
recombinant human mPGES-1, sequence (O14684 whole entry): as above

| IC50 [1, 2] | IC50 (mPGES-1 in A549 cells; [3]) | SMILES | IC50 [1, 4] | IC50 (mPGES-1 in A549 cells; [5]) |
| --- | --- | --- | --- | --- |
| 3.9 nM | 4.4 nM | Cn1c(Nc2c(Cl)ccc(CNC(=O)C(C)(C)F)c2Cl)nc2cc(C(=O)Nc3ccc(F)c(Cl)c3)c(N3CC[C@@H](F)C3)cc21 [Example 235] | – | – |
| 3.3 nM | 2 nM | Cn1c(Nc2c(Cl)ccc(CNC(=O)C(C)(C)C(F)(F)F)c2Cl)nc2cc(C(=O)Nc3ccc(F)c(Cl)c3)c(N3CC[C@@H](F)C3)cc21 [Example 236] | – | – |
| 1.8 nM | < 1 nM | Cn1c(Nc2c(Cl)ccc(CNC(=O)C(C)(C)F)c2Cl)nc2cc(C(=O)Nc3ccc(OC(F)(F)F)cc3)c(N3CCC(C(F)(F)F)CC3)cc21 [Example 237] | – | – |
| 2.2 nM | 2 nM | Cn1c(Nc2c(Cl)ccc(CNC(=O)C(C)(C)C(F)(F)F)c2Cl)nc2cc(C(=O)Nc3ccc(OC(F)(F)F)cc3)c(N3CCC(C(F)(F)F)CC3)cc21 [Example 238] | – | – |
| 3.5 nM | 5 nM | Cn1c(Nc2c(Cl)ccc(CNC(=O)C(C)(C)F)c2Cl)nc2cc(C(=O)Nc3ccc(OC(F)(F)F)cc3)c(N3CC[C@@H](F)C3)cc21 [Example 239] | – | – |
| 4.9 nM | 2 nM | Cn1c(Nc2c(Cl)ccc(CNC(=O)C(C)(C)C(F)(F)F)c2Cl)nc2cc(C(=O)Nc3ccc(OC(F)(F)F)cc3)c(N3CC[C@@H](F)C3)cc21 [Example 240] | – | – |
| 3.5 nM | < 1 nM | Cn1c(Nc2c(Cl)ccc(CNC(=O)C(C)(C)C)c2Cl)nc2cc(C(=O)Nc3ccc(OC(F)(F)F)cc3)c(N3CC[C@@H](F)C3)cc21 [Example 241] | – | – |
| 1.7 nM | 5 nM | Cn1c(Nc2c(Cl)ccc(CNC(=O)C(C)(C)F)c2Cl)nc2cc(C(=O)Nc3cccc(C(F)(F)F)n3)c(N3CCC(C(F)(F)F)CC3)cc21 [Example 242] | – | – |
| 2.9 nM | 4.5 nM | Cn1c(Nc2c(Cl)ccc(CNC(=O)[C@@](C)(O)C(F)(F)F)c2Cl)nc2cc(C(=O)Nc3cccc(C(F)(F)F)n3)c(N3CCC(C(F)(F)F)CC3)cc21 [Example 243] | – | – |
| 4.2 nM | 27 nM | Cn1c(Nc2c(Cl)ccc(CNC(=O)[C@](C)(O)C(F)(F)F)c2Cl)nc2cc(C(=O)Nc3cccc(C(F)(F)F)n3)c(N3CCC(C(F)(F)F)CC3)cc21 [Example 244] | – | – |
| 3.8 nM | 2.4 nM | Cn1c(Nc2c(Cl)ccc(CNC(=O)C(C)(C)C)c2Cl)nc2cc(C(=O)Nc3cccc(C(F)(F)F)n3)c(N3CC[C@@H](F)C3)cc21 [Example 245] | – | – |
| 2.9 nM | 1.5 nM | Cn1c(Nc2c(Cl)ccc(CNC(=O)C(C)(C)C)c2Cl)nc2cc(C(=O)Nc3ccc(F)c(Cl)c3)c(N3CC[C@@H](F)C3)cc21 [Example 246] | – | – |
| 3 nM | 3 nM | Cn1c(Nc2c(Cl)ccc(CNC(=O)[C@@](C)(O)C(F)(F)F)c2Cl)nc2cc(C(=O)Nc3ccc(F)c(Cl)c3)c(N3CC[C@@H](F)C3)cc21 [Example 247] | – | – |
| 6.7 nM | 6 nM | Cn1c(Nc2c(Cl)ccc(CNC(=O)[C@](C)(O)C(F)(F)F)c2Cl)nc2cc(C(=O)Nc3ccc(F)c(Cl)c3)c(N3CC[C@@H](F)C3)cc21 [Example 248] | – | – |
| 4.2 nM | 6 nM | Cn1c(Nc2c(Cl)ccc(CNC(=O)C(C)(C)F)c2Cl)nc2cc(C(=O)N[C@H]3CC[C@H](C(F)(F)F)CC3)c(N3CCC(C(F)(F)F)CC3)cc21 [Example 249] | – | – |
| 1.7 nM | 1 nM | Cn1c(Nc2c(Cl)ccc(CNC(=O)C(C)(C)C(F)(F)F)c2Cl)nc2cc(C(=O)N[C@H]3CC[C@H](C(F)(F)F)CC3)c(N3CCC(C(F)(F)F)CC3)cc21 [Example 250] | – | – |
| 3.9 nM | 1 nM | Cn1c(Nc2c(Cl)ccc(CNC(=O)[C@@](C)(O)C(F)(F)F)c2Cl)nc2cc(C(=O)N[C@H]3CC[C@H](C(F)(F)F)CC3)c(N3CCC(C(F)(F)F)CC3)cc21 [Example 251] | – | – |
| 2.9 nM | 1.4 nM | Cn1c(Nc2c(Cl)ccc(CNC(=O)[C@](C)(O)C(F)(F)F)c2Cl)nc2cc(C(=O)N[C@H]3CC[C@H](C(F)(F)F)CC3)c(N3CCC(C(F)(F)F)CC3)cc21 [Example 252] | – | – |
| 5.7 nM | 2.4 nM | Cn1c(Nc2c(Cl)ccc(CNC(=O)C(C)(C)F)c2Cl)nc2cc(C(=O)N[C@H]3CC[C@@H](C(F)(F)F)CC3)c(N3CCC(C(F)(F)F)CC3)cc21 [Example 253] | – | – |
| 3.1 nM | 1 nM | Cn1c(Nc2c(Cl)ccc(CNC(=O)C(C)(C)C(F)(F)F)c2Cl)nc2cc(C(=O)N[C@H]3CC[C@@H](C(F)(F)F)CC3)c(N3CCC(C(F)(F)F)CC3)cc21 [Example 254] | – | – |
| 4.3 nM | 4 nM | Cn1c(Nc2c(Cl)ccc(CNC(=O)[C@](C)(O)C(F)(F)F)c2Cl)nc2cc(C(=O)N[C@H]3CC[C@@H](C(F)(F)F)CC3)c(N3CCC(C(F)(F)F)CC3)cc21 [Example 255] | – | – |
| 3.9 nM | 1 nM | Cn1c(Nc2c(Cl)ccc(CNC(=O)C(C)(C)F)c2Cl)nc2cc(C(=O)NC3CC(F)(F)C3)c(N3CCC(C(F)(F)F)CC3)cc21 [Example 256] | – | – |
| 1.9 nM | 3.5 nM | Cn1c(Nc2c(Cl)ccc(CNC(=O)C(C)(C)C(F)(F)F)c2Cl)nc2cc(C(=O)NC3CC(F)(F)C3)c(N3CCC(C(F)(F)F)CC3)cc21 [Example 257] | – | – |
| 2.2 nM | 4 nM | Cn1c(Nc2c(Cl)ccc(CNC(=O)[C@@](C)(O)C(F)(F)F)c2Cl)nc2cc(C(=O)NC3CC(F)(F)C3)c(N3CCC(C(F)(F)F)CC3)cc21 [Example 258] | – | – |
| 4.1 nM | 2 nM | Cn1c(Nc2c(Cl)ccc(CNC(=O)[C@](C)(O)C(F)(F)F)c2Cl)nc2cc(C(=O)NC3CC(F)(F)C3)c(N3CCC(C(F)(F)F)CC3)cc21 [Example 259] | – | – |
| 4 nM | 2 nM | Cn1c(Nc2c(Cl)ccc(CNC(=O)C(C)(C)F)c2Cl)nc2cc(C(=O)NCCC(F)(F)F)c(N3CCC(C(F)(F)F)CC3)cc21 [Example 260] | – | – |
| 2.9 nM | 1.6 nM | Cn1c(Nc2c(Cl)ccc(CNC(=O)C(C)(C)C(F)(F)F)c2Cl)nc2cc(C(=O)NCCC(F)(F)F)c(N3CCC(C(F)(F)F)CC3)cc21 [Example 261] | – | – |
| – | – | Cn1c(Nc2cc(CNC(=O)C(C)(C)C)ccc2Cl)nc2cc(C(=O)Nc3ccc(Br)cc3)c(OCC(F)F)cc21 [[drawing 48] of WO 2010/100249, reference compound] | 3 nM | 10 nM |
| – | – | Cn1c(Nc2cc(CNC(=O)C(C)(C)C)ccc2Cl)nc2cc(C(=O)NCC3CC3)c(OCC(F)F)cc21 [[drawing 52] of WO 2010/100249, reference compound] | 2 nM | > 200 nM |
